From PubChem BioAssay AID1963982 (Molecular Pharmacology Branch, DTP, NCI, 2024)

System: 313798-341-R-J2-PDC spheroids, viability
Assay: Anticancer human tumor 313798-341-R-J2-PDC patient-derived cervical squamous cell carcinoma cell line growth inhibition [PI3K]
Details: spheroids with HUVEC and MSC; for IC50: curve of first compound; for viability, T/C: stronger effect = lower value; active means viability on the fitted dose curve at most 10% of control; inactive means the rest
How it was run: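 High-throughput combination screen: PI3K inhibitors crossed with targeted small molecules on complex spheroids of tumor cells, HUVEC and MSCs at 37 degrees C, 5% CO2. Top concentration was at or near clinical Cmax (otherwise 10 microM), with half-log decrements.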

[1] = second compound 0.0316 µM, first compound 0.0316 µM
[2] = second compound 0.0316 µM, first compound 0.1 µM
[3] = second compound 0.0316 µM, first compound 0.316 µM
[4] = second compound 0.0316 µM, first compound 1 µM
[5] = second compound 0.0316 µM, first compound 3.16 µM
[6] = second compound 0.0316 µM, first compound 10 µM
[7] = second compound 0.1 µM, first compound 0.0316 µM
[8] = second compound 0.1 µM, first compound 0.1 µM
[9] = second compound 0.1 µM, first compound 0.316 µM
[10] = second compound 0.1 µM, first compound 1 µM
[11] = second compound 0.1 µM, first compound 3.16 µM
[12] = second compound 0.1 µM, first compound 10 µM
[13] = second compound 0.316 µM, first compound 0.0316 µM
[14] = second compound 0.316 µM, first compound 0.1 µM
[15] = second compound 0.316 µM, first compound 0.316 µM
[16] = second compound 0.316 µM, first compound 1 µM
[17] = second compound 0.316 µM, first compound 3.16 µM
[18] = second compound 0.316 µM, first compound 10 µM
[19] = second compound 1 µM, first compound 0.0316 µM
[20] = second compound 1 µM, first compound 0.1 µM
[21] = second compound 1 µM, first compound 0.316 µM
[22] = second compound 1 µM, first compound 1 µM
[23] = second compound 1 µM, first compound 3.16 µM
[24] = second compound 1 µM, first compound 10 µM
[25] = second compound 3.16 µM, first compound 0.0316 µM
[26] = second compound 3.16 µM, first compound 0.1 µM
[27] = second compound 3.16 µM, first compound 0.316 µM
[28] = second compound 3.16 µM, first compound 1 µM
[29] = second compound 3.16 µM, first compound 3.16 µM
[30] = second compound 3.16 µM, first compound 10 µM
[31] = second compound 10 µM, first compound 0.0316 µM
[32] = second compound 10 µM, first compound 0.1 µM
[33] = second compound 10 µM, first compound 0.316 µM
[34] = second compound 10 µM, first compound 1 µM
[35] = second compound 10 µM, first compound 3.16 µM
[36] = second compound 10 µM, first compound 10 µM
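Further: spheroids exposed to compounds for seven days.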
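Wherever viability, T/C is given: 100% = DMSO vehicle control viability.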

C#Cc1c(F)ccc2cc(O)cc(-c3ncc4c(N5CC6CCC(C5)N6)nc(OCC56CCCN5CC(F)C6)nc4c3F)c12 (centres undefined) + Cc1nc(NC(=O)N2CCCC2C(N)=O)sc1-c1ccnc(C(C)(C)C(F)(F)F)c1
9.34 µM: IC50 (second compound 3.16 µM)
< 0.0316 µM: IC50 (second compound 10 µM)
inactive: viability, T/C [1] 92.7% | viability, T/C [2] 91.5% | viability, T/C [3] 90.5% | viability, T/C [4] 99.2% | viability, T/C [5] 103% | viability, T/C [6] 102% | viability, T/C [7] 105% | viability, T/C [8] 106% | viability, T/C [9] 112% | viability, T/C [10] 97% | viability, T/C [11] 105% | viability, T/C [12] 96.5% | viability, T/C [13] 99.9% | viability, T/C [14] 98.4% | viability, T/C [15] 121% | viability, T/C [16] 108% | viability, T/C [17] 99.1% | viability, T/C [18] 100% | viability, T/C [19] 97.6% | viability, T/C [20] 80.3% | viability, T/C [21] 89.3% | viability, T/C [22] 89.7% | viability, T/C [23] 90.9% | viability, T/C [24] 79% | viability, T/C [25] 59.9% | viability, T/C [26] 62.5% | viability, T/C [27] 59.1% | viability, T/C [28] 60.1% | viability, T/C [29] 54.6% | viability, T/C [30] 44.8% | viability, T/C [31] 41.7% | viability, T/C [32] 39.8% | viability, T/C [33] 33.2% | viability, T/C [34] 33.9% | viability, T/C [35] 31.3% | viability, T/C [36] 27.2%
> 10 µM: IC50 (second compound 0.0316 µM) | IC50 (second compound 0.1 µM) | IC50 (second compound 0.316 µM) | IC50 (second compound 1 µM)

C=CC(=O)N1CCN(c2nc(=O)n(-c3c(C)ccnc3C(C)C)c3nc(-c4c(O)cccc4F)c(F)cc23)C(C)C1 (centres undefined) + Cc1nc(NC(=O)N2CCCC2C(N)=O)sc1-c1ccnc(C(C)(C)C(F)(F)F)c1
inactive: viability, T/C [1] 99.9% | viability, T/C [2] 101% | viability, T/C [3] 96.5% | viability, T/C [4] 106% | viability, T/C [5] 99.2% | viability, T/C [6] 96% | viability, T/C [7] 94.4% | viability, T/C [8] 94% | viability, T/C [9] 114% | viability, T/C [10] 86.3% | viability, T/C [11] 94.3% | viability, T/C [12] 92.8% | viability, T/C [13] 91.2% | viability, T/C [14] 90.2% | viability, T/C [15] 93.1% | viability, T/C [16] 98.8% | viability, T/C [17] 101% | viability, T/C [18] 101% | viability, T/C [19] 89% | viability, T/C [20] 89.4% | viability, T/C [21] 88.2% | viability, T/C [22] 97.3% | viability, T/C [23] 96.7% | viability, T/C [24] 89.5% | viability, T/C [25] 67.5% | viability, T/C [26] 56.5% | viability, T/C [27] 51.9% | viability, T/C [28] 67.5% | viability, T/C [29] 67.9% | viability, T/C [30] 58.5% | viability, T/C [31] 35.2% | viability, T/C [32] 32.4% | viability, T/C [33] 35.7% | viability, T/C [34] 32.9% | viability, T/C [35] 37.9% | viability, T/C [36] 34.2%
> 10 µM: IC50 (second compound 0.0316 µM) | IC50 (second compound 0.1 µM) | IC50 (second compound 0.316 µM) | IC50 (second compound 1 µM) | IC50 (second compound 3.16 µM)
< 0.0316 µM: IC50 (second compound 10 µM)
